Entries after “also recorded” stand apart in the source; their conditions may differ. One block for each substance: values may come before it.
Tests used:
[1] = tested on: FPB antiserum (R4097, bleed I3); experiment: Competitive ELISA for specificity of the FPB antiserum (competitor in solution vs surface-bound synthetic human FPB); type: binding, rabbit; conditions: for competition / cross-reaction with FPB antiserum (in words): competitor in solution vs surface-bound synthetic human FPB; for IC50: FPB antiserum 1:2500, competitive ELISA, read-out: IC50, competition for antibody binding to surface-bound synthetic human FPB; for cross-reactivity, defined as IC50 of FPB divided by IC50 of competitor times 100: FPB antiserum, competitive ELISA
Description: A competitive ELISA was developed to evaluate the specificity of the FPB antiserum. Unless otherwise noted, all steps were performed at room temperature, and the microplates were washed three times in between each step with 0.02 M NaH2PO4, 0.15 M NaCl, 1 mM EDTA, pH 7.4 (PNE) containing 0.1% tween-20. Microplate wells were first coated with synthetic human FPB ([…] in 0.2 M NaHCO3, […]) overnight at 4 C., and then “blocked” with 1% BSA in PNE (PNEA) for one hour. Meanwhile, serial dilutions of each competitor were prepared. The following competitors, all of human origin except where noted, were tested: native FPB (human and canine), synthetic FPB, synthetic des-arg FPB, synthetic fibrinopeptide A, and purified fibrinogen. […] of each competitor dilution were pre-incubated separately with […] of FPB antiserum (1:2500) in polypropylene microfuge tubes for 90 min. Dilutions of the competitors and of antiserum were prepared in dilution buffer (PNEA containing 0.1% tween-20). At the end of the pre-incubation period, 100 mL of each mixture were applied to duplicate FPB-coated wells and incubated for 90 min. After washing, 100 mL of peroxidase-conjugated goat anti-rabbit IgG detecting antibody (1:5000 in dilution buffer) were added to each well and incubated for one hour. After a final wash, each well was developed with 100 ml of OPD substrate solution for exactly five minutes. The reaction was stopped by addition of an equal volume of 3 N H2SO4, and the absorbance (490 nm) of each well was measured in the microplate reader.
A competitive ELISA was developed for determination of the FPB concentration in plasma and urine ultrafiltrates. Unless otherwise noted, all steps were performed at room temperature, and the microplates were washed three times in between each step with 0.02 M NaH2PO4, 0.15 M NaCl, 1 mM EDTA, pH 7.4 (PNE) containing 0.1% tween-20. Microplate wells were first coated with synthetic FPB (2 μg/ml in 0.2 M NaHCO3, 100 μl/well) overnight at 4 C., and then “blocked” with 1% BSA in PNE (PNEA) for one hour. Meanwhile, 20 μl of ultrafiltered samples and synthetic FPB standards (1.56-100 ng/ml) were pre-incubated separately with 200 μl of FPB antiserum (1:2500) in polypropylene microfuge tubes for one hour. Dilutions of the FPB standard and antiserum were prepared in dilution buffer (PNEA containing 0.1% tween-20). At the end of the pre-incubation period, 100 μl of each mixture were applied to duplicate FPB-coated wells and incubated for one hour. After washing, 100 μl of peroxidase-conjugated goat anti-rabbit IgG detecting antibody (1:5000 in dilution buffer) were added to each well and incubated for one hour. After a final wash, each well was developed with 100 μl of OPD substrate solution for exactly five minutes. The reaction was stopped by addition of an equal volume of 3 N H2SO4, and the absorbance (490 nm) of each well was measured in a microplate reader. The concentration of FPB in the samples was interpolated from a standard curve obtained by plotting the FPB concentration of each standard versus the corresponding absorbance. If sample values exceeded the upper limit of the standard curve, those samples were re-tested after appropriate dilution with dilution buffer. The intra- and inter-assay coefficients of variation for the FPB assay were 14.1% and 5.0%, respectively. The competitive ELISA was also used to assess the cross-reactivity of the FPB antiserum with human fibrinogen, fibrinopeptide A (FPA), des-arg FPB, and canine FPB.

[2] = Urinary FPBtot before and during anticoagulation in VTE patients (Example 6); type: in vivo, human
Text: Consecutive patients referred to the VTE service in whom the diagnosis of DVT and/or PE is confirmed (based on the criteria described above) are enrolled. Prior to therapy, blood and urine samples are collected for measurement of FPBtot (and other FPB measurements described above). Patients are then be treated with intravenous heparin (80 units/kg bolus, 18 units/kg/hr infusion), with the dose adjusted per protocol to keep aPTT 1.5-2.5 times the control values. As soon as steady-state “therapeutic doses” of heparin are maintained, blood and urine are collected again and the same parameters are measured. In addition, plasma aPTT, anti-Xa and anti-thrombin measurements are made as previously described (Morris et al. 1998).
For each patient, the difference between urinary and plasma FPBtot levels, measured before and after anticoagulation, is recorded. The mean reduction in FPBtot levels after anticoagulation is calculated. The required sample size is estimated based on the preliminary data described below: The mean (+/−SD) decrease in urinary FPBtot during anticoagulation was 60 ng/ml (+/−85.7 ng/ml). Assuming similar standard deviations for the VTE patients to be studied, thirty-seven pairs of samples are required in order to detect a 50% decrease in the levels after anticoagulation, with an alpha of 0.01 and a power of 95%.

[3] = tested on: experimentally induced thrombi; experiment: Canine experimental thrombosis model, FPBtot in plasma and urine (Example 2); type: in vivo, dog; conditions: heparin bolus 300 units/kg, infusion 90 units/kg/hr after embolization, three dogs
Text: Adult mongrel dogs were anesthetized and their native fibrinogen depleted. After the ancrod has been eliminated from the circulation, during a time when the native fibrinogen activity is minimal, experimental thrombi are induced as previously described (Morris et al. 1997b). The dogs are anesthetized with halothane, intubated and mechanically ventilated to maintain arterial blood gases within normal limits. […] After this, they were transfused with 6 grams of purified human fibrinogen in normal saline to achieve a fibrinogen level of at least 300 mg/dl. Under these conditions, fibrinogen levels were maintained at >200 mg/dl throughout the study period.
Double balloon catheters were advanced via hind-leg saphenous veins to the femoral veins on each side. The balloons were then inflated, creating a 5 ml sealed chamber within the veins. […]
Blood and urine samples were collected into titrated tubes (containing protease inhibitors) at baseline, after defibrinogenation, at regular intervals after thrombus induction, and after anticoagulation. […] All samples were stored at […] until analyzed. FPBtot levels in urine and ultrafiltrated plasma are determined by immunoassay as described above.
The means and standard deviations of the FPBtot levels, as determined by immunoassay, associated with each time point are calculated. […]

[4] = tested on: femoral vein thrombi / pulmonary emboli; experiment: Canine fibrinogen-replacement thrombosis and pulmonary embolism model, FPB in plasma and urine (Example 3); type: in vivo, dog; conditions: n=3
Description: A competitive ELISA was developed for determination of the FPB concentration in plasma and urine ultrafiltrates. Unless otherwise noted, all steps were performed at room temperature, and the microplates were washed three times in between each step with 0.02 M NaH2PO4, 0.15 M NaCl, 1 mM EDTA, pH 7.4 (PNE) containing 0.1% tween-20. Microplate wells were first coated with synthetic FPB (2 μg/ml in 0.2 M NaHCO3, 100 μl/well) overnight at 4 C., and then “blocked” with 1% BSA in PNE (PNEA) for one hour. Meanwhile, 20 μl of ultrafiltered samples and synthetic FPB standards (1.56-100 ng/ml) were pre-incubated separately with 200 μl of FPB antiserum (1:2500) in polypropylene microfuge tubes for one hour. Dilutions of the FPB standard and antiserum were prepared in dilution buffer (PNEA containing 0.1% tween-20). At the end of the pre-incubation period, 100 μl of each mixture were applied to duplicate FPB-coated wells and incubated for one hour. […] The reaction was stopped by addition of an equal volume of 3 N H2SO4, and the absorbance (490 nm) of each well was measured in a microplate reader. The concentration of FPB in the samples was interpolated from a standard curve obtained by plotting the FPB concentration of each standard versus the corresponding absorbance. […]

Substance: native human FPB: FPB derived from purified human fibrinogen clotted with thrombin, ultrafiltrate (QGVNDNEEGFFSAR)
- competition / cross-reaction with FPB antiserum (in words) [1]: effective competitive inhibitor

- IC50 [1]: 2.3 nM
Substance: fibrinogen: purified human fibrinogen, used as ELISA competitor and for transfusion of dogs
- competition / cross-reaction with FPB antiserum (in words) [1]: significant cross-reaction; also recorded: significant cross-reactivity

Substance: native canine FPB: FPB derived from purified canine fibrinogen clotted with thrombin, ultrafiltrate (HYYDDTDEEERIVSTVDAR)
- competition / cross-reaction with FPB antiserum (in words) [1]: did not compete

- cross-reactivity, defined as IC50 of FPB divided by IC50 of competitor times 100 [1]: < 0.1%
Substance: FPA: short amino acid sequence at the amino terminus of the alpha chain of fibrinogen (ADSGEGDFLAEGGGVR)

- IC50 [1]: 6.7 nM
Substance: QGVNDNEEGFFSAR [FPB, human fibrinopeptide B, cleaved by thrombin from the beta-chains of fibrin I]

- IC50 [1]: 8.9 nM
- cross-reactivity, defined as IC50 of FPB divided by IC50 of competitor times 100 [1]: 75%
Substance: QGVNDNEEGFFSA [des-arg FPB, degradation product formed as FPB is exposed to carboxypeptidases in normal plasma]

Substance: heparin
- urinary levels of FPB during anticoagulation (in words) ([2]; all but one patient): significantly decreased
- mean decrease in urinary FPBtot during anticoagulation ([2]; preliminary data, mean (+/-SD)): 60 ng/mL
- thrombosis after excess heparin [3]: thrombosis is halted
- rise in plasma FPB following embolization ([4]; heparin iv 300 units/kg bolus, 90 units/kg/hr, one hour prior to embolization): completely suppressed
- initial peak of total urinary FPB ([4]; heparin iv one hour prior to embolization): suppressed
